These results are taken from US9642922B2, “Caspase-triggered nano-aggregation probes and methods of use” (The Board of Trustees of the Leland Stanford Junior …, priority 2013, dated 2017).

Series [1] relates to HeLa tumor xenograft. The series can be described thus: PET imaging of HeLa tumor xenograft-bearing nude mice. Format: in vivo, mouse. The procedure:
One group of animals was scanned at baseline (before treatment) and 4 days post treatment with 0.2 mg doxorubicin injected into the tumor. On the day of scanning, the animals were moved from their housing area to the PET scanner around 1 h prior to the experiment. They were constrained shortly in a tail veiner and injected intravenously, with 440±97 μCi (16±3 MBq) [^18F]C-SNAT formulation. They were anesthetized with 2% isoflurane shortly before placement in an R4 microPET scanner (Siemens Medical Solutions, USA). The anesthesia were continued with 2% isoflurane doing 5 min of acquisition. Scans using the control tracer 1-D (173±73 μCi/9±4 Mbq in 200 μL formulation) were carried out in a similar manner using two groups (one baseline and one treated) instead of the same animals at baseline and after treatment. The images were reconstructed using a standard 2D reconstruction without attenuation correction.
The reconstructed images were analyzed by making two volumes of interest (VOI), one on the tumor and one located on the left shoulder corresponding to muscle/bone mixture. The percent of injected dose per gram tissue (% ID/g) was calculated in each VOI and the ratio between tumor and muscle uptake was calculated based on this uptake (uptake in tumor/uptake in muscle region). The effect of treatment was calculated as the difference in uptake of [^18F]C-SNAT at baseline and after treatment.
Evaluation of activatable PET tracer 1 and control tracer 1-D for PET imaging of caspase-3 activity in vivo was performed in HeLa tumor xenograft-bearing nude mice. Tumors were implanted and grown for a minimum of 10 d before receiving intratumoral injection of 0.2 mg DOX (20 μL). 1 or 1-D (5-15 MBq/135-405 μCi) was injected through the tail vein for PET imaging 4 d post treatment. Static PET scans (5 min) were performed 65, 125 and 182 mins post tracer injection.

The target in series [2] is T1, caspase-3 (Homo sapiens, UniProt P42574).
T1 sequence (P42574 29-175 limits assumed): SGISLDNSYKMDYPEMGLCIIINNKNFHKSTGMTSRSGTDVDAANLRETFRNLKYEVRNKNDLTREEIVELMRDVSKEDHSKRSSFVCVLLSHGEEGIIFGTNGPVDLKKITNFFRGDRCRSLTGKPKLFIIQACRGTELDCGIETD
T1 sequence (P42574 176-277 limits assumed): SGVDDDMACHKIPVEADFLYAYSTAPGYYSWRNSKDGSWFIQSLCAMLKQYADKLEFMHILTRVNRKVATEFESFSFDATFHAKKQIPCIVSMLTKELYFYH
The series can be described thus: Incubation of PET tracer with recombinant caspase-3, radio-HPLC. Format: biochemical. As to conditions: same condition. On the procedure: To evaluate the activatable PET tracer 1 for caspase-3 detection, it was first incubated with recombinant caspase-3 in buffer.

Series [3] is described as follows: Stability of PET tracers in mouse serum. To be noted: 1 h incubation, 37° C. Format: in vitro ADME. On the procedure: To the mouse serum (500 μL) 100 μL (approximately 100 μCi/3.7 MBq) of radioactive sample was added and the mixture was incubated at 37° C. At each time point, 100 μL of sample was taken and after mixing with 100 μL of acetonitrile was centrifuged at 9,400×g for 5 min. The resulting supernatants were collected, and an aliquot of each supernatant (100 μL) was diluted with 100 μL of water and analyzed via the same HPLC method used for quality control (fitted with a highly sensitive positron detector for radioactivity). The percent ratio of intact compound to the total radioactivity on the HPLC chromatogram was calculated as %=[(peak area for intact compound)/(total peak area)]×100.

Series [4] relates to HeLa cells. The series can be described thus: ICP-MS cellular uptake of Gd in HeLa cells. As to conditions: 250 μM, 24 h. Format: cell-based, human. The procedure:
The cellular uptake of Gd was studied by inductively-coupled plasma mass spectrometry (ICP-MS) analysis of the amount of Gd in viable and apoptotic cells after incubation with probe 15 (50-250 μM) for 24 h. […] This uptake enhancement was inhibitable by Z-VAD-fmk (50 μM), confirming the caspase-3-dependent accumulation of probe 15 in apoptotic cells.

The nature of series [5]: Water proton r1 relaxivity measurement. Format: physicochemical. As to conditions: 1 T. The procedure: Water proton r1 relaxivities of probe 15 and 1-ctrl (19) before and after caspase-3 incubation were then measured at 1, 1.5 and 3 T. For comparison, the isolated cyclized products 2-I and 2-II were also measured.
A series of solutions containing contrast agents with five different concentrations (0.05-0.5 mM) in Caspase buffer (pH 7.4) were treated with or without Casp-3 (50 nM) at 37° C. overnight. The solutions were placed in PCR tubes, bundled together, and MR-imaged at 1 T (Bruker Icon, Bruker BioSpin Corp.), […], 1.5 and 3 T (Signa HDx, GE Healthcare) at room temperature.
The scanning procedure began with a localizer and then consisted of a series of inversion-prepared fast spin echo scans, identical in all aspects (TR 8000 ms (6000 ms for Bruker Icon), TE minimum, field of view 6 cm, slice thickness 2 mm, matrix 128×128, NEX 1) except for the inversion time (TI) that was varied as: 4000, 2400, 1200, 800, 600, 400, 300, 200, 100, and 50 ms. For quantitative data analysis, the acquired MR images were transferred as DICOM images to an offline workstation, and signal intensities were extracted from each of the 5 samples at each of the 10 TI times by manual region of interest (ROI) placement and voxel averaging within the ROI.
Signal intensity versus TI relationships were fit to the following exponential T1 recovery model by non-linear least squares regression: SI (TI)=S0[1−2*exp(−TI/T1)+exp(−TR/T1)]. Relaxation rates (R1) were determined as 1/T1. Longitudinal relaxivities (r1, units of mM^−1s^−1) were calculated as the slope of R1 vs [Gd] after the determination of true Gd concentration of each sample by the ICP-MS measurement.

The target in series [6] is T1, caspase-3. The series can be described thus: HPLC assay of caspase-3-triggered cyclization of MRI probe 15. Format: biochemical. Details: purchased Sigma; host or cells: E. coli. The procedure: The progression of caspase-3-triggered intramolecular cyclization of probe 15 in solution was investigated by incubation (200 μM) with recombinant human caspase-3 (50 nM) using high-performance liquid chromatography (HPLC). […] More than 90% of probe 15 and its disulfide bond reduced intermediates could be converted after 5 h (FIG. 27B).

In series [7] the test system is subcutaneous HeLa tumors. The series can be described thus: In vivo MR imaging of doxorubicin-treated HeLa tumors. On the set-up: species or system mouse. As to conditions: up to 4 h. The procedure: Evaluation of activatable contrast agent probe 15 for MR imaging of caspase-3 activity in vivo was performed in nude mice bearing subcutaneous HeLa tumors. Tumors were implanted and grown for 10-15 days before receiving intratumoral injections of two doses of 0.2 mg doxorubicin separated by 2 days. Probe 15 or 1-ctrl (19) (0.1 mmol kg^−1) was injected intravenously the day before treatment (baseline) and four days post-treatment (treated). Spin-echo T1-weighted multislice MR images at 1 T were recorded before (pre-contrast) and every 4 min after contrast agent administration (post-contrast), and scanning was carried out for 4 h post-contrast for each mouse. Much brighter MR signals (T1 contrast) were observed 40 and 120 min after injection with probe 15 in treated tumors as compared to that in baseline tumors (FIG. 29A), or in treated tumors with 1-ctrl (19) (FIG. 29B).
In vivo MR imaging was performed on an Aspect M2 1T permanent magnet (Aspect Imaging, Shoham, Israel) using a 40 mm Transmit/Receive mouse body coil. During imaging, the animals were anaesthetized with isofluorane and their respiration and body temperature were constantly monitored. Intravenous contrast injection at 0.1 mmol/kg concentration was administered in a 100 μL volume for every imaging session. Multi-slice (312 μm in-plane, 12 slices with 1 mm thickness) T1-weighted spin echo images (TE/TR=8.9/250 ms, matrix 128×128, FOV=40 mm, NEX=6) were acquired, one before contrast injection and then every 4 min up to 4 h after contrast injection. A 1 mM Dotarem reference tube was inserted in the field of view to enable inter-session variability correction during post-processing. Each animal underwent two imaging session; one before DOX treatment (baseline), and one after DOX treatment (treated).
Acquired MR data were transferred as DICOM images to an offline workstation and ImageJ (NIH) was used for post processing and quantitative image analysis. This consisted of manual segmentation of tumor ROI for each slice, slice-wise normalization of mean tumor signal intensity with the 1 mM Dotarem reference standard to account for inter-session variability, followed by combining these normalized, slice-wise values to generate mean volumetric tumor signal intensities (SI) for each time point.
Signal enhancement was calculated at each time point as the difference between the tumor SI at that time point and the tumor SI in the pre-contrast (t=0) dataset. SE(t)=SI(t)−SI(t=0); for each mouse, for every session
This metric was used to quantify the difference in SE between the baseline (before DOX treatment) session and the treated session for each mouse, as a means to tease out the difference between the two contrast agents, probe 1 and 1-cntl (19) over the time course of the imaging session. % D(t)=[SE(t,treated)−SE(t,baseline)]/SE(t,baseline); for each mouse.

For series [8], the system named is HeLa cell pellets. The series can be described thus: MRI T1 of HeLa cell pellets at 1 T. To be noted: 250 μM, 24 h. Format: cell-based, human. The source says:
Thus, higher caspase-3 activity in apoptotic cells can trap probe 15 inside cells, resulting in higher MRI contrast for cell apoptosis imaging.

Numbered stars: 1 amine (or outer) side, 2 acyl side, 3 side chain; on linkers, the order of the positions; unused ones are H or OH. Square brackets hold non-standard residues; d marks the D form. Peptide text beside a SMILES is read from it. * marks the point of attachment. DOTA = O=C(O)CN1CCN(CC(=O)O)CCN(CC(=O)*)CCN(CC(=O)O)CC1; X1 = O=C(C1CSC(c2nc3ccc(N[*:1])cc3s2)=N1)[*:2]; X3 = c1cnc2ccc(OCCCN*)cc2c1; SEt = CCS*

Take `CSCC(NC(=O)C(CC(=O)O)NC(=O)C(NC(=O)C(CCC(=O)O)NC(=O)C(CC(=O)O)NC(C)=O)C(C)C)C(=O)NC(Cc1cn(CCOCCOCCOCC[18F])nn1)C(=O)Nc1ccc2nc(C3=NC(C(=O)NCCCOc4ccc5ncccc5c4)CS3)sc2c1` (stereo not drawn) [1-D]: the “uptake difference between before and after treatment” value in series [1] (control tracer) is reported as “less than 0.2 % ID/g”. Besides, in series [1] (mouse, in vivo), the “change of T/M ratio” value is listed as “did not show significant increases”; the “uptake in treated and non-treated tumors compared with 1” value is “much lower than that of 1”. Besides, in series [2], the “cleavage by caspase-3” value was “could not be cleaved by caspase-3”. For the same compound, the “intact tracer in mouse serum” value in series [3] is reported as 90%.
For the compound `CCSSCC(NC(=O)C(CC(=O)O)NC(=O)C(NC(=O)C(CCC(=O)O)NC(=O)C(CC(=O)O)NC(C)=O)C(C)C)C(=O)NC(CCCCNC(=O)CN1CCN(CC(=O)[O-])CCN(CC(=O)[O-])CCN(CC(=O)[O-])CC1)C(=O)Nc1ccc2nc(C3=NC(C(=O)NCCCOc4ccc5ncccc5c4)CS3)sc2c1.[Gd+3]` (stereo not drawn) [1-ctrl (19)] (Ac-DEVDC(SEt)K(DOTA)[X1]-X3; configuration not given here), the “uptake of Gd in STS-treated cells compared with probe 15” value in series [4] was “much lower uptake of Gd”. Further, in series [5], the “reduction of relaxivity after incubation with caspase-3” value is 14%. For the same compound, in series [6], the “products observed after incubation with caspase-3” value is “only the DEVD peptide cleaved and disulfide reduced product was observed”. Moreover, the “difference in SI enhancement between treated and baseline tumors” value in series [7] was “no significant difference in SI enhancement”.
On to `CNC[C@H](O)[C@@H](O)[C@H](O)[C@H](O)CO.O=C([O-])CN1CCN(CC(=O)[O-])CCN(CC(=O)O)CCN(CC(=O)[O-])CC1.[Gd+3]` [Dotarem, reference compound], for which the “uptake of Gd in STS-treated cells compared with probe 15” value in series [4] was “much lower uptake of Gd”. Besides, the “r1 relaxivity without caspase-3 activation” value in series [5] amounted to 4.8 mM⁻¹ s⁻¹. Besides, the “difference in T1 between STS-treated and non-treated cells” value in series [8] is “no significant reduction in T1”.
